# Read-outs that look alike come from different tables or passages of the source.
# What was measured:
# [1] = system: S. aureus ATCC 29213; test: MIC by micro-dilution broth method (CLSI); type: cell-based
# [2] = Mouse liver microsome stability assay; type: in vitro ADME; details: 3 h at 37° C., LC-MS/MS, ± SEM of 3 biological replicates
# Method in brief: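 Compound at 50 μM final (0.5% DMSO) incubated with pooled male CD-1 mouse liver microsomes (1 mg/mL protein) plus NADPH regenerating system in PBS pH 7.4 at 37° C. for 3 h. Samples at 0 and 3 h quenched with internal standard and quantified by LC/MS/MS (MRM).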
# [3] = system: S. aureus ATCC 29213; test: Resistance frequency, large inoculum method; type: cell-based
# Experimental: (§1) Selection of Resistant Mutants. Resistant mutants were selected via the large inoculum method. Briefly, S. aureus ATCC 29213 (1×10^9 CFU) were plated on 100 mm plates of LB agar containing 4, 2, 1, 0.5, and 0.25 μg/mL.
# [4] = system: S. aureus resistant mutants with EF-G (fusA) mutations; test: microbe, parasite or virus in culture; type: cell-based; details: for MIC: Staphylococcus aureus
# Experimental: (§2) Antimicrobial Susceptibility Tests. Susceptibility testing was performed in biological triplicate, using the micro-dilution broth method as outlined by the Clinical and Laboratory Standards Institute. Bacteria were cultured with cation-adjusted Muller-Hinton broth (Sigma-Aldrich, Cat #90922) in round-bottom 96-well plates (Corning, Cat #3788). Human serum (Ultrafiltrate, unspecified gender, 30K Dalton membrane filtered) was purchased from BioIVT (Hicksville, NY).
# as §1
# (§3) Sequencing of fusA. FusA was amplified by colony PCR. Colonies were picked and diluted in 100 μL sterile H2O. PCR reactions are setup by combining MiFi Mix (Bioline, London, UK), 20 μM primer mix [fusA-F2, fusA_seq1, Forward EF-G2, and Reverse EF-G](S. aureus ATCC 29213), template DNA, and H2O. Reactions were performed on C1000 Thermal Cycler (Bio-Rad, Hercules, CA) with the following conditions: 5 minutes denaturation at 95° C., followed by 30 cycles of 20 seconds at 95° C., 20 seconds at 50° C., and either 1 minute (fusA1) or 1.5 minutes (fusA2) at 72° C. A 10 μL portion of the PCR reaction mixture was analyzed by agarose gel to confirm the product. PCR reactions were purified using GeneJET PCR Purification Kit (Thermo Scientific). PCR amplicons were submitted to the Core DNA Sequencing Facility at the University of Illinois at Urbana-Champaign for Sanger sequencing with the following primers to sequence the fusA [fusA2, fusA_seq1, Forward EF-G2, Forward EF-G3, Forward EF-G4]
# [5] = system: FA-Resistant strains of S. aureus; test: MIC against 11 FA-resistant strains generated at 4x-32x the MIC; type: cell-based; details: for MIC: Staphylococcus aureus
# Experimental: as §2, §1, §3
# [6] = system: S. aureus ATCC BAA-1721; test: MIC against strain possessing the fusC gene; type: cell-based; details: Staphylococcus aureus, ATCCBAA1721
# [7] = system: E. faecium ATCC 19434; test: MIC against sensitive E. faecium strain; type: cell-based; details: Enterococcus faecium, ATCC19434; sensitive strain E. faecium ATCC 19434
# [8] = system: multidrug-resistant clinical isolates of E. faecium; test: MIC against multidrug-resistant clinical isolates of E. faecium; type: cell-based; details: for MIC: Enterococcus faecium
# [9] = Mouse MTD / tolerability; details: mice
# Experimental: The protocol was approved by the IACUC at the University of Illinois at Urbana-Champaign (Protocol Number: 16144 and 19181). In these studies, 10- to 12-week-old female C57BL/6 mice purchased from Charles River were used. The maximum tolerated dose (MTD) of single compound was determined first. […] All the mice were monitored for signs of toxicity for 2 weeks. For multiple doses, the compound was given by daily IP for 4 consecutive days, and mice were monitored for signs of toxicity for 1 month. MTD was the highest dosage with acceptable toxicity (e.g., <20% weight loss).
compound,measurement,setting,value
"CC(=O)O[C@H]1C[C@@]2(C)[C@@H](C[C@@H](O)[C@H]3[C@@]4(C)CC[C@@H](O)[C@@H](C)[C@@H]4CC[C@@]32C)/C1=C(\CCC=C1CCCC1)C(=O)O [FA-CP, (Z)-2-((3R,4S,5S,8S,9S,10S,11R,13R,14S,16S)-16-acetoxy-3,11-dihydroxy-4,8,10,14-tetramethylhexadecahydro-17H-cyclopenta[a]phenanthren-17-ylidene)-5-cyclopentylidenepentanoic acid]",Antibacterial activity relative to FA,[1]; S. aureus ATCC 29213 MIC,equipotent activity to FA
same,MIC,"[1]; Staphylococcus aureus, ATCC29213, read-out: MIC Without Human Serum",0.125 µg/mL
same,Metabolic Stability in Mouse Liver Microsomes (percent remaining),[2],78 ± 4%
same,Resistance frequency relative to FA,[3]; at 2× and 32× the MIC,modest improvement in resistance frequency
same,Resistance frequency relative to FA,"[3]; head-to-head with FA, 2×-32× the MIC",improvement in resistance frequency relative to FA
same,MIC,"[4]; read-out: MIC for FA-CP, strain FA-CP-32X-1, EF-G H457Y",32 µg/mL
same,MIC,"[4]; read-out: MIC for FA-CP, strain FA-CP-32X-2, EF-G H457Y",64 µg/mL
same,MIC,"[4]; read-out: MIC for FA-CP, strain FA-CP-32X-3, EF-G H457Y",64 µg/mL
same,MIC,"[4]; read-out: MIC for FA-CP, strain FA-CP-32X-4, EF-G H457Y",32 µg/mL
same,MIC,"[4]; read-out: MIC for FA-CP, strain FA-CP-32X-5, EF-G H457Y",64 µg/mL
same,MIC,"[4]; read-out: MIC for FA-CP, strain FA-CP-32X-6, EF-G H457Y",64 µg/mL
same,MIC,"[4]; read-out: MIC for FA-CP, strain FA-CP-32X-7, EF-G H457Y",64 µg/mL
same,MIC,"[4]; read-out: MIC for FA-CP, strain FA-CP-32X-8, EF-G H457Y",64 µg/mL
same,MIC,"[4]; read-out: MIC for FA-CP, strain FA-CP-32X-9, EF-G H457Y",32 µg/mL
same,MIC,"[4]; read-out: MIC for FA-CP, strain FA-CP-32X-10, EF-G D434N",32 µg/mL
same,MIC,"[4]; read-out: MIC for FA-CP, strain FA-CP-32X-11, EF-G H457Y",32 µg/mL
same,MIC,"[4]; read-out: MIC for FA-CP, strain FA-CP-32X-12, EF-G D434N",32 µg/mL
same,MIC,"[4]; read-out: MIC for FA-CP, strain FA-CP-32X-13, EF-G H457Y",64 µg/mL
same,MIC,"[4]; read-out: MIC for FA-CP, strain FA-CP-32X-14, EF-G H457Y",32 µg/mL
same,MIC,"[4]; read-out: MIC for FA-CP, strain FA-CP-32X-15, EF-G H457Y",64 µg/mL
same,MIC,"[4]; read-out: MIC for FA-CP, strain FA-CP-32X-16, EF-G F88L",64 µg/mL
same,MIC,"[4]; read-out: MIC for FA-CP, strain FA-CP-32X-17, EF-G F88L",64 µg/mL
same,MIC,"[4]; read-out: MIC for FA-CP, strain FA-CP-32X-18, EF-G H457Y",64 µg/mL
same,MIC,"[4]; read-out: MIC for FA-CP, strain FA-CP-32X-19, EF-G H457Y",32 µg/mL
same,MIC,"[4]; read-out: MIC for FA-CP, strain FA-CP-32X-20, EF-G H457Y",32 µg/mL
same,Fold increase from WT S. aureus of highest MIC,[4]; colonies generated from the same compound at 32× the MIC,512
same,MIC,"[5]; strain FA-4X-A, EF-G T385N",2 µg/mL
same,MIC,"[5]; strain FA-4X-B, EF-G T385N",2 µg/mL
same,MIC,"[5]; strain FA-8X-A, EF-G T385N",2 µg/mL
same,MIC,"[5]; strain FA-8X-B, EF-G R464L",8 µg/mL
same,MIC,"[5]; strain FA-16X-A, EF-G H457Y",64 µg/mL
same,MIC,"[5]; strain FA-32X-A, EF-G F88L",128 µg/mL
same,MIC,"[5]; strain FA-32X-B, EF-G P406L",4 µg/mL
same,MIC,"[5]; strain FA-32X-C, EF-G H457L",128 µg/mL
same,MIC,"[5]; strain FA-32X-D, EF-G T436I",2 µg/mL
same,MIC,"[5]; strain FA-32X-E, EF-G H457N",128 µg/mL
same,MIC,"[5]; strain FA-32X-F, EF-G D434N",32 µg/mL
same,Fold improvement in activity against FA-resistant strains relative to FA,[5]; eleven FA-resistant S. aureus strains,2-8 fold
same,MIC,[6],8 µg/mL
same,MIC,[7],2 µg/mL
same,Cross-resistance with vancomycin,[8]; E. faecium clinical isolates,no cross-resistance with vancomycin
same,MIC,[8]; E. faecium AR0572 (CDC),4 µg/mL
same,MIC,[8]; E. faecium AR0574 (CDC),2 µg/mL
same,MIC,[8]; E. faecium AR0575 (CDC),2 µg/mL
same,MIC,[8]; E. faecium AR0576 (CDC),4 µg/mL
same,MIC,[8]; E. faecium AR0578 (CDC),2 µg/mL
same,MIC,[8]; E. faecium AR0579 (CDC),1 µg/mL
same,Tolerability,[9]; 50 mg/kg IP once-a-day for 4 consecutive days,well tolerated
same,Tolerability,"[9]; single dose of 50 mg/kg, IP injection",well tolerated
